The target in experiment [1] is T1, XYL10C (Bispora sp. MEY-1, UniProt D0QF43).
T1 construct: 18-residue signal peptide
T1 sequence (D0QF43 19-424): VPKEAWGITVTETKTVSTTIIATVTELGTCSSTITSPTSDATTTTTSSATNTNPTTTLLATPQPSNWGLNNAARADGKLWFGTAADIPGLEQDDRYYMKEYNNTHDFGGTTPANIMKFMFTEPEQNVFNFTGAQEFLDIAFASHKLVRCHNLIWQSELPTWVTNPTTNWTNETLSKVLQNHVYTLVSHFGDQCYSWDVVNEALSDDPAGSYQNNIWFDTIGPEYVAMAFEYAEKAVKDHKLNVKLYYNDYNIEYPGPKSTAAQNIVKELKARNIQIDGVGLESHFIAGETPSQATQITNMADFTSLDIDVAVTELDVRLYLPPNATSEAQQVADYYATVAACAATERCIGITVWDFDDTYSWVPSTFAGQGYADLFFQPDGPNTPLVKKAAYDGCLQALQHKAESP
The experiment is described as follows: HPAEC of hydrolysis products. The format is biochemical. As to conditions: pH 4.5, 70 °C, 16 h, Na2HPO4-citric acid; products mainly xylose and xylobiose.

Experiment [2] addresses T2, XYL10C-ΔN (Bispora sp. MEY-1, UniProt D0QF43).
T2 construct: 18-residue signal peptide and the next 66 N-terminal residues removed; pPIC9, Pichia pastoris GS115; deglycosylated with Endo Hf; two monomers in asymmetric unit
As to the kind of experiment: HPAEC of hydrolysis products. The format is biochemical. As to conditions: pH 4.5, 70 °C, 16 h, Na2HPO4-citric acid; products mainly xylose and xylobiose.

Molecules are shown by their SMILES.

Regarding `OC1OC[C@@H](O[C@@H]2OC[C@@H](O[C@@H]3OC[C@@H](O)[C@H](O)[C@H]3O)[C@H](O)[C@H]2O)[C@H](O)[C@H]1O` (stereo partly shown) [X3, xylotriose], the “HPAEC of hydrolysis products” value in experiment [1] is recorded as “employed an endo-mode of action to cleave xylotriose, xylotetraose, xylopentaose, xylohexaose”; in experiment [2], “employed an endo-mode of action to cleave xylotriose, xylotetraose, xylopentaose, xylohexaose”.
Take `OC1OC[C@@H](O[C@@H]2OC[C@@H](O[C@@H]3OC[C@@H](O[C@@H]4OC[C@@H](O[C@@H]5OC[C@@H](O[C@@H]6OC[C@@H](O)[C@H](O)[C@H]6O)[C@H](O)[C@H]5O)[C@H](O)[C@H]4O)[C@H](O)[C@H]3O)[C@H](O)[C@H]2O)[C@H](O)[C@H]1O` (stereo partly shown) [X6, xylohexaose]: the “HPAEC of hydrolysis products” value in experiment [1] is listed as “employed an endo-mode of action to cleave xylotriose, xylotetraose, xylopentaose, xylohexaose”; in experiment [2] it was “employed an endo-mode of action to cleave xylotriose, xylotetraose, xylopentaose, xylohexaose”.

The values are drawn from publication PMC5992652, “Insight into the functional roles of Glu175 in the hyperthermostable xylanase XYL10C-ΔN through structural analysis and site-saturation mutagenesis” (Biotechnology for Biofuels, 2018).
